# System: CWR-22Rv1 prostate cancers
# Assay: Vascular volume, albumin-Evans Blue accumulation (EPR effect) and growth in CWR-22Rv1 bearing mice treated with tasquinimod
# Format: in vivo, mouse
# Description: To evaluate the potential importance of an EPR effect for enhancing tumor specific tasquinimod uptake and thus anti-cancer potency, albumin retention in plasma and normal tissue vs. prostate cancer was determined. To do this, nude mice bearing CWR-22Rv1 prostate cancers were injected intravenously (IV) with Evans Blue (EB) at a dose (10mg/kg) so that all of the dye is initially bound to albumin within the blood. Twenty-four hours later, the amount of albumin-EB complex retained in plasma vs. accumulated in liver, kidney, or CWR-22Rv1 prostate cancers determined. The results are expressed as concentration of extractable albumin-EB in plasma vs. the specified tissue. These studies document that prostate cancers accumulate a concentration of albumin-EB that is equal to that in the plasma by 24 hours, Figure 3C. When normalized to vascular volume, the albumin-EB accumulation by prostate cancers is more than two fold greater (p<0.05) compared to liver and more than 8 fold greater (p<0.05) compared to kidney, Figure 3C. […] Such continuous treatment with tasquinimod decreased the vascular volume within the cancers by nearly half (p<0.05), Figure 3C. […]
# Tissue vascular volumes for liver, kidney, and CWR-22Rv1 cancers were determined previously via intravenous infusion of^51 Chromium (Perkin Elmer, Shelton, CT) labeled red blood cells and the result expressed as percent vascular volume as described previously.
# EPR effect was determined using Evans Blue as described previously with the modification that 24 hours after the albumin in the blood of tumor bearing nude mice was labeled via IV injection of Evans Blue (EB) at a dose of 10mg/kg, the animals were anesthetized, blood collected, and then animals were perfused with saline to remove blood from the host tissues before harvesting liver, kidney, and prostate cancer xenograft tissue. The results are expressed as the concentration of EB-labeled albumin retained in the blood or specified tissue.
smiles,measurement,setting,value
COc1cccc2c1c(O)c(C(=O)N(C)c1ccc(C(F)(F)F)cc1)c(=O)n2C [Tasquinimod],Percent Vascular Volume (Prostate Cancer),10mg/kg/day for 30 days,1.4±0.4
same,decrease of vascular volume within the cancers,10 mg/kg/day for a month,nearly half
same,inhibition in cancer growth,"CWR-22Rv1, 10 mg/kg/day for a month",greater than 80%

# — article PMC4226669, “Anti-cancer potency of tasquinimod is enhanced via albumin-binding facilitating increased uptake in the tumor microenvironment” (Oncotarget, 2014)
